According to US12617779B2, “Self degradation-type CDK9 inhibitor prodrug and liposome encapsulating same” (Sumitomo Pharma Co., Ltd., priority 2021, dated 2026):

Test: Evaluation of conversion rate to active form in buffer solution (Experimental Example 1)
Assay type: physicochemical
Conditions: for Production rate of Alvocidib / Residual rate: 37° C., 25 umol/L in buffer solution
Method: For Examples 1 to 16 and Comparative Examples 1 to 14, the attrition rate of the test compound and the conversion rate of the test compound to Alvocidib in a buffer solution were calculated by the following method.
Examples 1 to 16 and Comparative Examples 1 to 14 were each left in buffer solutions adjusted to pH 5.0, 5.5, 6.0, 6.5, 7.0 and 7.4, respectively, at a concentration of 25 umol/L at 37° C. After 0, 0.5, 1, 2 and 3 hours, the residual rates of the compounds of Examples […] and the production rate of Alvocidib were determined by HPLC.
The buffer solutions used at each pH are as follows. • pH 5.0: 50 mM citrate buffer solution (pH 5.0) • pH 5.5: 50 mM citrate buffer solution (pH 5.5) • pH 6.0: 50 mM phosphate buffer solution (pH 6.0) • pH 6.5: 50 mM phosphate buffer solution (pH 6.5) • pH 7.0: 50 mM phosphate buffer solution (pH 7.0) • pH 7.4: 50 mM phosphate buffer solution (pH 7.4)
The measurement conditions for HPLC are as follows.

CCNC(=O)Oc1cc(O)c2c(=O)cc(-c3ccccc3Cl)oc2c1[C@H]1CCN(C)C[C@H]1O [Comparative Example 1, reference compound]
Production rate of Alvocidib (pH5.0, 0 hr): 8.4%
Residual rate (pH5.0, 0 hr): 91.6%
Stability in buffer solution at pH 5 (pH 5, 37° C., up to 2 or 3 hours): unstable
Conversion to Alvocidib at pH 5 within 3 hours (pH 5, 37° C., within 3 hours): mostly converted to Alvocidib
Production rate of Alvocidib (pH5.0, 0.5 hr): 37.9%
Residual rate (pH5.0, 0.5 hr): 62.1%
Production rate of Alvocidib (pH5.0, 1 hr): 58.5%
Residual rate (pH5.0, 1 hr): 41.5%
Production rate of Alvocidib (pH5.0, 2 hr): 82.1%
Residual rate (pH5.0, 2 hr): 17.9%
Production rate of Alvocidib (pH5.0, 3 hr): 91.8%
Residual rate (pH5.0, 3 hr): 8.2%
Production rate of Alvocidib (pH5.5, 0 hr): 8.8%
Residual rate (pH5.5, 0 hr): 91.2%
Production rate of Alvocidib (pH5.5, 0.5 hr): 74.7%
Residual rate (pH5.5, 0.5 hr): 25.3%
Production rate of Alvocidib (pH5.5, 1 hr): 92.7%
Residual rate (pH5.5, 1 hr): 7.3%
Production rate of Alvocidib (pH5.5, 2 hr): 98.9%
Residual rate (pH5.5, 2 hr): 1.1%
Production rate of Alvocidib (pH5.5, 3 hr): 99.3%
Residual rate (pH5.5, 3 hr): 0.7%
Production rate of Alvocidib (pH6.0, 0 hr): 10.1%
Residual rate (pH6.0, 0 hr): 89.9%
Production rate of Alvocidib (pH6.0, 0.5 hr): 96.3%
Residual rate (pH6.0, 0.5 hr): 3.7%
Production rate of Alvocidib (pH6.0, 1 hr): 98.3%
Residual rate (pH6.0, 1 hr): 1.5%
Production rate of Alvocidib (pH6.0, 2 hr): 98.5%
Residual rate (pH6.0, 2 hr): 1.3%
Production rate of Alvocidib (pH6.0, 3 hr): 99.0%
Residual rate (pH6.0, 3 hr): 1.0%
Production rate of Alvocidib (pH6.5, 0 hr): 12.9%
Residual rate (pH6.5, 0 hr): 87.1%
Production rate of Alvocidib (pH6.5, 0.5 hr): 98.7%
Residual rate (pH6.5, 0.5 hr): 1.3%
Production rate of Alvocidib (pH6.5, 1 hr): 99.0%
Residual rate (pH6.5, 1 hr): 1.0%
Production rate of Alvocidib (pH6.5, 2 hr): 98.9%
Residual rate (pH6.5, 2 hr): 1.1%
Production rate of Alvocidib (pH6.5, 3 hr): 99.2%
Residual rate (pH6.5, 3 hr): 0.8%
Production rate of Alvocidib (pH7.0, 0 hr): 22.2%
Residual rate (pH7.0, 0 hr): 77.8%
Production rate of Alvocidib (pH7.0, 0.5 hr): 99.0%
Residual rate (pH7.0, 0.5 hr): 1.0%
Production rate of Alvocidib (pH7.0, 1 hr): 99.1%
Residual rate (pH7.0, 1 hr): 0.9%
Production rate of Alvocidib (pH7.0, 2 hr): 98.8%
Residual rate (pH7.0, 2 hr): 1.0%
Production rate of Alvocidib (pH7.0, 3 hr): 99.1%
Residual rate (pH7.0, 3 hr): 0.9%
Production rate of Alvocidib (pH7.4, 0 hr): 40.2%
Residual rate (pH7.4, 0 hr): 59.8%
Production rate of Alvocidib (pH7.4, 0.5 hr): 99.1%
Residual rate (pH7.4, 0.5 hr): 0.9%
Production rate of Alvocidib (pH7.4, 1 hr): 98.9%
Residual rate (pH7.4, 1 hr): 1.1%
Production rate of Alvocidib (pH7.4, 2 hr): 99.1%
Residual rate (pH7.4, 2 hr): 1.0%
Production rate of Alvocidib (pH7.4, 3 hr): 99.3%
Residual rate (pH7.4, 3 hr): 0.7%
